Data published in US20150050373A1, “HERBAL COMPOSITION FOR THE TREATMENT OF METABOLIC DISORDERS” (PIRAMAL ENTERPRISES LIMITED, priority 2012, published 2015).

Tests used:
[1] = target: T1, human DGAT-1 enzyme over expressed in Sf9 cell-line (Homo sapiens, UniProt O75907); assay: hDGAT-1 assay (inhibition of [14C]triglyceride formation by microsomes); assay type: biochemical
T1 construct: hDGAT-1 ORF expression clone (RZPD0839C09146 in pDEST vector) was obtained from RZPD, Germany; made in house; host or cells: Sf9 insect cells (baculovirus, Bac-to-Bac); microsomal fraction
T1 sequence (O75907 1-488): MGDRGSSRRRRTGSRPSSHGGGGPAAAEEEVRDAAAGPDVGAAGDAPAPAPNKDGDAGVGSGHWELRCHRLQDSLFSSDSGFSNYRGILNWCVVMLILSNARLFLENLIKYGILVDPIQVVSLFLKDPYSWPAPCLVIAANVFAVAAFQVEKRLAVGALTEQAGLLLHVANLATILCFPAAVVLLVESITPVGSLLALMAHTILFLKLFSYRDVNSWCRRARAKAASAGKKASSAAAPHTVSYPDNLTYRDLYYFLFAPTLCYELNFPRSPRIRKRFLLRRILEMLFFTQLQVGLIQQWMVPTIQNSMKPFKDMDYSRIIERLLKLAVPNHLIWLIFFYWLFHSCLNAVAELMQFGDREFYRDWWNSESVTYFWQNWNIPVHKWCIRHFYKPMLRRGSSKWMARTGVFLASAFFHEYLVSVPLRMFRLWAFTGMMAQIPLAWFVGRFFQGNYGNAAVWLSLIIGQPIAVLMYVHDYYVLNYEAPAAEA
Procedure: The DGAT-1 assay was designed using human DGAT-1 enzyme over expressed in Sf9 cell-line as described in the reference, European Journal of Pharmacology, 650, 663-672, (2011), the disclosure of which is incorporated by reference for the teaching of the assay.
hDGAT-1 Enzyme preparation: Enzyme was diluted to a working concentration of 1 mg/mL in hDGAT-1 assay buffer, 2.5 μL of the working enzyme stock was used in hDGAT-1 assay (final concentration 25 μg/mL).
The test samples were prepared as follows. A stock solution of 20 mg/mL was prepared for each extract (Extract of Example 1 to Extract of Example 7) in 100% dimethyl sulfoxide (DMSO). The working stock was prepared in hDGAT-1 assay buffer. […]
Three different concentrations for dose response (i.e. 25 μg/mL, 50 μ/mL and 100 μg/mL) were prepared for Extract of Example 1 by serial dilution of stock solution.
60 μL of substrate mix (as described above) was added to a total assay volume of 100 μL. The reaction was started by adding 2.5 μg hDGAT-1 containing microsomal protein and was incubated at 37° C. for 10 min. The reaction was stopped by adding 300 μL of alkaline ethanol stop solution mix (AESSM). The reaction involves the incorporation of radioactive [^14C] oleoyl-CoA into the third hydroxyl group (OH) of 1,2-dioleoyl-sn-glycerol to form the radioactive triglyceride ([^14C] triglyceride) which was then extracted into the upper heptane phase. The radioactive triglyceride product thus formed was separated into the organic phase by adding 600 μL of n-heptane. 250 μL of the upper heptane was added into 4 mL of scintillation fluid and measured using a liquid scintillation counter (Packard; 1600CA) as disintegration per min (dpm) counts. The percentage inhibition was calculated with respect to the vehicle. […]

[2] = tested on: high fat diet (HFD) induced obesity model; assay: High fat diet (HFD)-induced body weight gain study in mice; assay type: in vivo; conditions: Mean ± S.E.M.
Procedure: A HFD induced body weight gain study in mice was conducted to evaluate the efficacy of the Extract of Example 1.
Male C57BL/6J mice (in-house; Central Animal Facility, Piramal Healthcare Limited, Goregaon, Mumbai, Maharashtra, India) were acclimatized with HFD (60% Kcal, D12492, Research Diets, USA) for two weeks.
A suspension of Extract of Example 1 was prepared in polyethyleneglycol 400 (30%) (PEG 400, Fisher Scientific, India) and 0.5% carboxy methylcellulose (70%) (CMC, Sigma, USA).
The Extract of Example 1 was administered at a dose of 500 mg/kg body-weight orally, once daily. Orlistat (Biocon, India) was used as the standard drug and was administered orally at a dose of 15 mg/kg body weight, twice daily. A separate group of ten mice was fed a low fat diet (LED, 10% kcal, D12450B, Research Diet, USA) as a normal control. Vehicle was administered to the HFD and LFD control groups at dose of 10 mL/kg body weight.
The treatments were continued for a period of sixty days. Body weight and feed intake were monitored daily. The % change in body weight (% increase in body weight from day 1) and the cumulative feed intake data was calculated. On day sixtyone, blood samples (˜200 μL/mice) were collected in heparinised (50 IU/mL) micro-centrifuge tubes under isoflurane anesthesia. Plasma was separated by centrifugation at 10000 rpm at 4° C. for estimation of various plasma biochemistry parameters. The biochemistry analysis was performed on BS-400 autoanalyzer (Mindray, China). Subsequently, the mice were sacrificed and following organs/tissues were dissected out and weighed viz., liver, heart, kidneys, epididymal fat and retroperitoneal fat. All the data was analyzed for statistical significance by one-way ANOVA followed by Dunnet's post-hoc test and values of P<0.05 were considered as significant. All analyses were carried out using GraphPad Prism version 4.00 for Windows (GraphPad Software, San Diego, Calif., USA).

[3] = HFD-fed mice after 60 days treatment, Extract 500 mg/kg once daily, Orlistat 15 mg/kg twice daily, oral
[4] = HFD-fed mice, Day 60, Extract 500 mg/kg orally once daily, Orlistat 15 mg/kg orally twice daily

SMILES | % inhibition of hDGAT-1 ([1]; Table 1, 20 nM) | % inhibition of hDGAT-1 ([1]; Table 1, 0.1 μM) | % inhibition of hDGAT-1 ([1]; Table 2, 20 nM) | % inhibition of hDGAT-1 ([1]; Table 2, 0.1 μM) | Body Weight (g) (Day 0) ([2]; HFD-fed male C57BL/6J mice, baseline Day 0) | Epididymal Fat [2, 3] | Retroperitoneal Fat [2, 3] | % Change in body weight ([2]; HFD-fed mice, % increase in body weight from day 1, 60 days, Extract 500 mg/kg orally once daily, Orlistat 15 mg/kg orally twice daily) | Body Weight (g) (Day 60) [2, 4] | Cumulative Feed intake (g/mice) (Day 60) [2, 4] | Total Fat ([2]; Total fat = Epididymal fat + Retroperitoneal fat, HFD-fed mice after 60 days treatment)
CC1(C)Oc2ncncc2N=C1c1ccc([C@H]2CC[C@@H](CC(=O)O)CC2)cc1 [IN5530, 2-((1s,4s)-4-(4-(7,7-dimethyl-7H-pyrimido [4,5-b][1,4]oxazin-6-yl)phenyl)cyclohexyl)acetic acid] | 46.27% | 66.04% | 48.82% | 74.26% |  |  |  |  |  |  | 
CCCCCCCCCCC[C@@H](C[C@@H]1OC(=O)[C@H]1CCCCCC)OC(=O)[C@H](CC(C)C)NC=O [Orlistat] |  |  |  |  | 26.4 ± 0.4 g | 1.07 ± 0.10 g | 0.42 ± 0.05 g | 16.74 ± 2.70% | 30.9 ± 0.9 g | 119.7 ± 4.7 g/mice | 1.49 ± 0.15 g
